Key:
K562 = test: Cytotoxicity was determined against K562 (chronic human myeloid leukemia )cells; assay type: functional, cell-based
LS174T = test: Cytotoxicity against LS174T (human colon carcinoma )cells; assay type: functional, cell-based

COC(=O)c1[nH]c2c(O)cc(NC(=O)c3cc4cc(NC(=O)c5cc6ccccc6o5)ccc4[nH]3)c(CCCl)c2c1C(=O)OC
IC50 (K562): 0.025 µM
IC50 (LS174T): 0.004 µM

COC(=O)c1[nH]c2c(O)cc(NC(=O)c3cc4cc(OC)c(OC)c(OC)c4[nH]3)c(CCCl)c2c1C(=O)OC
IC50 (K562): 0.025 µM
IC50 (LS174T): 0.004 µM

COc1cc2cc(C(=O)Nc3cc(O)ccc3CCCl)[nH]c2c(OC)c1OC
IC50 (K562): 1.47 µM
IC50 (LS174T): 13.8 µM

Reference: ChEMBL document CHEMBL1145215, “Design, synthesis, and biological evaluation of achiral analogs of duocarmycin SA” (Bioorg Med Chem Lett, 2005)
